Test results reported in patent US20110293756A1, “PREVENTIVES OR REMEDIES FOR TUMOR OR HUMAN PAPILLOMAVIRAL DISEASE” (priority 2001, published 2011).

What was measured:
[1] = system: koilocytic atypia, mild dysplasia and moderate dysplasia; settings: 5 mg/day, 331 patients, six months; cited from earlier work
[2] = system: cervical carcinoma in situ (CIS); experiment: Clinical test in cervical carcinoma in situ (CIS), stage 0; assay type: in vivo, human; settings: 2 to 6 weeks of administration; extracts 2 g/day, folic acid 15 mg/day; group A 21, B 15 (8+7), C 8, D 12, E 11 cases; control 0 of 42
Method: A method for the clinical testing was performed in the manner described below under sufficient informed consent. Colposcopy was performed for patients who had been diagnosed to be class IV or V based on the cytobiosis of cervical cancer, portions of their lesions were subjected to biopsy, and then administration of various pharmaceutical preparations was immediately started. Test groups are as shown below. Each group was observed. […]

[3] = system: cervical dysplasia (CIN1, CIN2); experiment: Clinical test in cervical dysplasia CIN1 / CIN2; assay type: in vivo, human; settings: 2 months after administration; extracts 2 g/day, folic acid 15 mg/day; Yokunin 8, hot water 3, ethanol 3, folic acid 5, enzyme/fermentation 6, with folic acid 8 cases; untreated 0 of 15
Method: According to the CIN classification, CIN1 and CIN2 correspond to mild dysplasia and moderate dysplasia, respectively, and CIN3 includes severe dysplasia and the above CIS. Here, the clinical effect of the pharmaceutical preparations of the present invention against the CIN1 and CIN2 is presented.
A test was conducted for cases, which had been diagnosed to be class III by cytological diagnosis and as having mild dysplasia or moderate dysplasia by histological diagnosis, and carefully followed up without conization, and for which informed consent had been obtained.
Further, the enzyme extract of Coix seeds with husks (3 cases)- or the fermentation extract (3 cases) (daily dose of 2 g of the respective extract ingredients)-administered group (6 cases), the enzyme extract of Coix seeds with husks (4 cases) or the fermentation extract (4 cases) (respective daily dose of 2 g as the extract ingredient) compounded with folic acid (15 mg/day)-administered group (8 cases) were observed. […] Test groups are as shown below. Each group was observed.
Each pharmaceutical preparation was administered over a long period (1 year), and cytological diagnosis and colposcopy were performed every 3 to 4 months.

CIN I or CIN II = settings: 10 mg/day, 154 cases, 6 months; cited from earlier work

In the case of `Nc1nc2ncc(CNc3ccc(C(=O)N[C@@H](CCC(=O)O)C(=O)O)cc3)nc2c(=O)[nH]1` [folic acid], the “improving effect compared with the group orally administered with placebo” value [1] is given as “no difference was found”, the “cases showing disappearance of carcinoma in situ in postoperative histological tests” value [2] is given as “none of the cases” and the “cases showing improvement in both cytological diagnosis and colposcopy findings” value [3] is given as “None of the cases”. For the same molecule, the “effect compared with the group orally administered with placebo” value (CIN I or CIN II) was “no difference was also found”.
